Laboratory results as given in ChEMBL document CHEMBL1811826, “Structure-activity relationship and docking studies of thiazolidinedione-type compounds with monoamine oxidase B” (Bioorg Med Chem Lett, 2011).
The source made the active and inactive calls. The calls are words filed in the database; no cut-off is given here.

Assays:
[1] = molecular target: T1, Amine oxidase [flavin-containing] B (Homo sapiens, UniProt P27338); assay: Inhibition of human recombinant MAOB by amplex red assay
T1 sequence (P27338 whole entry): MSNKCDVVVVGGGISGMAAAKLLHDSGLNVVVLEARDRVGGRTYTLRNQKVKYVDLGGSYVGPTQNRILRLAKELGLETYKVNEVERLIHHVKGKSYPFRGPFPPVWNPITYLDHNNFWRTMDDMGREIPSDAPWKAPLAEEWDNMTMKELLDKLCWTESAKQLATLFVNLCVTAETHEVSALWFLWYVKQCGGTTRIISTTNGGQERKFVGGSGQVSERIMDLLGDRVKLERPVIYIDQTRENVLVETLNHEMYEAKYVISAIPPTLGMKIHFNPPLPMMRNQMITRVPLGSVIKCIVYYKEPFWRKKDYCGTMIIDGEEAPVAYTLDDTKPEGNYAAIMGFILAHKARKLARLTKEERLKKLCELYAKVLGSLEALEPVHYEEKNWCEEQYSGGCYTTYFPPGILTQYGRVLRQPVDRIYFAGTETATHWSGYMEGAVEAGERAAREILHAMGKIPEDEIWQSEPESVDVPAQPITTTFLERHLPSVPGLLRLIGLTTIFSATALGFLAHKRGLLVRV

[2] = system: Mus musculus; assay: Neuroprotective activity in MPTP-stimulated C57BL/6 mouse assessed as increase in striatal dopamine content at 10 mg/kg, sc administered 1 hr before MPTP challenge measured after 7 days by HPLC method; assay type: functional, organism-based; parameters: dose 10 mg/kg
[3] = system: Mus musculus; assay: Toxicity in C57BL/6 mouse assessed as striatal dopamine level at 10 mg/kg, sc measured after 7 days by HPLC method; assay type: organism-based; parameters: dose 10 mg/kg, route subcutaneous; settings: in vivo, 168 h
[4] = molecular target: T2, Amine oxidase [flavin-containing] A (Homo sapiens, UniProt P21397); assay: Inhibition of human recombinant MAOA assessed as inhibition of kynuramine conversion to fluorescent metabolite 4-hydroxyquinoline by fluorimetry
T2 sequence (P21397 whole entry): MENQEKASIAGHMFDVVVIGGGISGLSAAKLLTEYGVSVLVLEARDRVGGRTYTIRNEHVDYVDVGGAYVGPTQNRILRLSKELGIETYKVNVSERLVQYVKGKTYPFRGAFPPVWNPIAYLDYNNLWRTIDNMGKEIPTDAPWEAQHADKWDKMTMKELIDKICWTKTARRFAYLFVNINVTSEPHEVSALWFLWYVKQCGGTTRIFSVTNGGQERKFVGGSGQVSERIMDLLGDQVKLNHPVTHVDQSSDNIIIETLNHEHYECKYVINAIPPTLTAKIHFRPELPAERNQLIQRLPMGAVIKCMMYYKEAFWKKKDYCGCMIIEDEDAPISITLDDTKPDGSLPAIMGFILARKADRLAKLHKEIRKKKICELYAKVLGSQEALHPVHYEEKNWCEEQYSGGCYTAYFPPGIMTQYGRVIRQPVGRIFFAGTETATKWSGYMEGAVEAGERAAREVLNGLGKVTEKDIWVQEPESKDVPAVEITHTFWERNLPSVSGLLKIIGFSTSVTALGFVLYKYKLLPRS

IC50 [1] [µM]	IC50 [4] [µM]	Compound	Activity [2]	Activity [3]
2.38		CC(C)(C)c1cc(CC2SC(=O)N=C2O)cc(C(C)(C)C)c1O (stereo unspecified)	Active	Non-toxic
309	252	CC(=O)c1ccc(CC2SC(=N)NC2=O)cc1 (stereo unspecified)		
11	35.3	O=C(/C=C1/SC(=O)NC1=O)Nc1cccc(O)c1		
	13	O=C1NC(=O)/C(=C\c2ccncc2)S1		
31.6	380	COc1cc(/C=C2/SC(=S)NC2=O)c(OC)cc1O		
0.8	10.6	CCCN1C(=O)/C(=C\c2ccncc2)SC1=S		
604	70.5	O=C(O)CCN1C(=O)/C(=C\c2ccccc2)SC1=S		
22	35.3	O=C(/C=C1/SC(=O)NC1=O)Nc1ccccc1		
1.02	39.9	O=C1NC(=O)/C(=C\c2cc(Br)c(O)c(Br)c2)S1		
36.5	399	CN1C(=O)/C(=C\c2ccc(Cl)cc2)SC1=S		
56	37.3	O=C1NC(=O)/C(=N\c2ccc(C(=O)O)cc2)S1		
24.1		N=C1NC(=O)C(Cc2ccccc2)S1 (stereo unspecified)		
	3.49	N#CCCN1C(=O)S/C(=C\c2ccccc2)C1=O		
273		O=C(O)C(Cc1ccc(O)cc1)N1C(=O)CSC1=S (stereo unspecified)		
6.07	67.3	O=C1NC(=O)/C(=C\c2cccc(Br)c2)S1		
	6.88	CN(C)c1ccc(/C=C2\SC(=O)N(CCN)C2=O)cc1		
16.1	26.2	Cc1cc(CC2SC(=O)NC2=O)cc(C)c1O (stereo unspecified)		
	1.04	CCOc1ccc(/C=C2\SC(=O)N(CCN)C2=O)cc1		
	166	O=C1NC(=O)/C(=C/c2ccc3nccnc3c2)S1		
	50.5	Cc1cc(C)cc(CC2SC(=O)NC2=O)c1 (stereo unspecified)		
	21.8	O=C1NC(=S)S/C1=C/c1ccncc1		
10.5	0.52	CN1C(=O)/C(=C\c2ccccc2)SC1=S		
2.49	28.6	COc1cc(/C=C2\SC(=S)NC2=O)ccc1O		
	29.8	COc1ccccc1/C=C1\SC(=O)N(CCN)C1=O		
225	194	O=C1NC(=O)C(Cc2ccc(O)cc2)S1 (stereo unspecified) [GLITAZONE]		
